# Data published in publication PMC5681660, “Reduced hepatitis B and D viral entry using clinically applied drugs as novel inhibitors of the bile acid transporter NTCP” (Scientific Reports, 2017).
# Where a name gives a salt, the structure may show the parent alone.
# Target: T1, human NTCP (Homo sapiens, UniProt Q14973)
# T1 sequence (Q14973 1-349): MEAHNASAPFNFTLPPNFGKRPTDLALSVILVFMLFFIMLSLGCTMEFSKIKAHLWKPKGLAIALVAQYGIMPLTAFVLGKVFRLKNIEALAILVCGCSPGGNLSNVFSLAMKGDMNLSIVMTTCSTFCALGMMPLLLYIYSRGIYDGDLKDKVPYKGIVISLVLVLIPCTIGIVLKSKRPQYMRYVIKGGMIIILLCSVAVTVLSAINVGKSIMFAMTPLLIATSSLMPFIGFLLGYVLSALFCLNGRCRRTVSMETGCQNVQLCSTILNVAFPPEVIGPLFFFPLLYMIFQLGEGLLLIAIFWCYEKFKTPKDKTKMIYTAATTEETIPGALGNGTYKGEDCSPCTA
# Assay: Screening taurocholate uptake assay (96-well, [14C]taurocholate, 10 µM drug)
# Conditions: for B-score functional assay: screening taurocholate uptake, 10 µM drug
# [1] = ranking over the functional and the binding screening assay
# [2] = combined ranking of functional and binding screening assays
Structure (SMILES),Ranking score [1],B-score functional assay,Ranking score [2],B-score functional assay (B-score)
Cc1c(O)cccc1C(=O)N[C@@H](CSc1ccccc1)[C@H](O)CN1C[C@H]2CCCC[C@H]2C[C@H]1C(=O)NC(C)(C)C [Nelfinavir mesylate],28.9828,-3.419,–,–
Cc1ccnc2c1NC(=O)c1cccnc1N2C1CC1 [Nevirapine],–,-1.052,548.284,–
CO[C@]12C[C@@H](COC(=O)c3cncc(Br)c3)CN(C)[C@@H]1Cc1cn(C)c3cccc2c13 [Nicergoline],–,-0.256,615.79,–
O=C(Nc1ccc([N+](=O)[O-])cc1Cl)c1cc(Cl)ccc1O [Niclosamide],178.326,-3.546,–,–
O=C(NCCO[N+](=O)[O-])c1cccnc1 [Nicorandil],–,–,1149.4,0.976
Cn1c(NCCN(CCO)CCCc2ccc([N+](=O)[O-])cc2)cc(=O)n(C)c1=O [Nifekalant],–,0.451,503.354,–
Cc1c(NC(=O)c2cccnc2)c(=O)n(-c2ccccc2)n1C [Nifenazone],–,0.488,560.079,–
COC(=O)C1=C(C)NC(C)=C(C(=O)OCC(C)C)C1c1ccccc1[N+](=O)[O-] (centres unmarked) [Nisoldipine],25.6905,-7.104,–,–
CC(=O)Oc1ccccc1C(=O)Nc1ncc([N+](=O)[O-])s1 [Nitazoxanide],189.082,-2.727,–,–
NC(=O)N/N=C/c1ccc([N+](=O)[O-])o1 [Nitrofural],–,0.068,535.985,–
C#C[C@]1(O)CC[C@H]2[C@@H]3CCC4=CC(=O)CC[C@@H]4[C@H]3CC[C@@]21C [Norethindrone],274.683,-0.48,–,–
OCCN1CCN(CCCN2c3ccccc3C=Cc3ccccc32)CC1 [Opipramol dihydrochloride],–,-0.641,627.796,–
Cc1ncc([N+](=O)[O-])n1CC(O)CCl (centres unmarked) [Ornidazole],260.803,-1.861,–,–
CCN(CC)CCc1nc(-c2ccccc2)no1.O=C(O)CC(O)(CC(=O)O)C(=O)O [Oxalamine citrate salt],–,0.505,587.786,–
CN1CCCN=C1/C=C/c1cccc(O)c1.O=C(O)c1cc2ccccc2c(Cc2c(O)c(C(=O)O)cc3ccccc23)c1O [Oxantel pamoate],130.111,-5.305,–,–
CN(C(=O)CN(CCO)CC(=O)N(C)C(C)(C)Cc1ccccc1)C(C)(C)Cc1ccccc1 [Oxethazaine],–,0.282,642.638,–
CCCOc1ccc2nc(NC(=O)OC)[nH]c2c1 [Oxibendazol],199.274,-0.538,–,–
C[C@]12C/C(=C/O)C(=O)C[C@@H]1CC[C@@H]1[C@@H]2CC[C@@]2(C)[C@H]1CC[C@]2(C)O [Oxymetholone],–,-1.45,467.145,–
C=C1C(=O)O[C@H]2[C@H]1CC/C(C)=C/CC[C@@]1(C)O[C@@H]21 [Parthenolide],–,2.985,607.546,–
Nc1nc2[nH]cc(CCc3ccc(C(=O)N[C@@H](CCC(=O)O)C(=O)O)cc3)c2c(=O)[nH]1 [Pemetrexed disodium],234.359,-1.364,–,–
Cc1cccn2c(=O)c(-c3nnn[nH]3)cnc12 [Pemirolast potassium],–,0.868,607.829,–
Nc1nc2c(ncn2CCC(CO)CO)c(=O)[nH]1 [Penciclovir],–,-0.886,573.819,–
N=C(N)c1ccc(OCCCCCOc2ccc(C(=N)N)cc2)cc1 [Pentamidine isethionate],–,-0.233,489.028,–
CC(=O)CCCCn1c(=O)c2c(ncn2C)n(C)c1=O [Pentoxifylline],–,-0.027,582.174,–
OCCN1CCN(CCCN2c3ccccc3Sc3ccc(Cl)cc32)CC1 [Perphenazine],88.5268,-0.257,–,–
Nc1ccc(/N=N/c2ccccc2)c(N)n1 [Phenazopyridine hydrochloride],182.587,-0.376,–,–
[H]/N=C(/N)N/C(=N/[H])NCCc1ccccc1 [Phenformin hydrochloride],172.511,0.533,–,–
O=C1c2ccccc2C(=O)C1c1ccccc1 [Phenindione],–,1.774,569.166,–

Structure (SMILES),Ranking score [1],B-score functional assay,Ranking score [2],B-score functional assay (B-score)
c1ccc2c(c1)Nc1ccccc1S2 [Phenothiazine],–,-0.168,553.972,–
CC(COc1ccccc1)N(CCCl)Cc1ccccc1 (centres unmarked) [Phenoxybenzamine hydrochloride],229.8,-0.06,–,–
NC(=O)OCCCc1ccccc1 [Phenprobamate],–,0.708,613.275,–
CN1CCC(=C2c3ccccc3Sc3ccccc32)CC1 [Pimethixene maleate],–,-0.824,556.525,–
O=c1[nH]c2ccccc2n1C1CCN(CCCC(c2ccc(F)cc2)c2ccc(F)cc2)CC1 [Pimozide],234.734,-2.417,–,–
CC(=O)c1ccc2c(c1)N(CCCN1CCC(CCO)CC1)c1ccccc1S2 [Piperacetazine],–,-0.935,531.5,–
CCN1CCN(C(=O)N[C@@H](C(=O)N[C@@H]2C(=O)N3[C@@H]2SC(C)(C)[C@@H]3C(=O)O)c2ccccc2)C(=O)C1=O [Piperacillin sodium salt],–,-0.194,549.729,–
NS(=O)(=O)c1cc(C(=O)O)cc(N2CCCC2)c1Oc1ccccc1 [Piretanide],–,-0.384,548.109,–
CS(=O)(=O)O.Cc1ccc2c(c1)c1c3n2CCNC3CCC1 (centres unmarked) [Pirlindole mesylate],–,0.129,496.839,–
CC(C)(C)C(=O)OCOC(=O)[C@@H]1N2C(=O)[C@@H](NC(=O)[C@H](N)c3ccccc3)[C@H]2SC1(C)C [Pivampicillin],199.66,2.096,–,–
COc1cc([C@@H]2c3cc4c(cc3[C@H](O)[C@H]3COC(=O)[C@H]23)OCO4)cc(OC)c1OC [Podophyllotoxin],–,–,1193.91,1.781
CC(=O)Nc1ccc(OCC(O)CNC(C)C)cc1 (centres unmarked) [Practolol],213.764,-2.472,–,–
C[n+]1ccccc1/C=N/O [Pralidoxime chloride],–,-0.006,600.675,–
O=C(Nc1cccc2c(=O)cc(-c3nnn[nH]3)oc12)c1ccc(OCCCCc2ccccc2)cc1 [Pranlukast],43.359,-8.959,–,–
CC[C@H](C)C(=O)O[C@H]1C[C@H](O)C=C2C=C[C@H](C)[C@H](CC[C@@H](O)C[C@@H](O)CC(=O)O)[C@H]21 [Pravastatin],245.632,-3.481,–,–
O=C(C1CCCCC1)N1CC(=O)N2CCc3ccccc3C2C1 (centres unmarked) [Praziquantel],262.237,-0.749,–,–
CCOC(=O)O[C@]1(C(=O)COC(=O)CC)CC[C@H]2[C@@H]3CCC4=CC(=O)C=C[C@]4(C)[C@H]3[C@@H](O)C[C@@]21C [Prednicarbate],140.036,-1.448,–,–
C[C@]12C=CC(=O)C=C1CC[C@@H]1[C@@H]2[C@@H](O)C[C@@]2(C)[C@H]1CC[C@]2(O)C(=O)CO [Prednisolone],–,-0.52,486.999,–
CCCC(C(=O)OCCN(CC)CC)(c1ccccc1)c1ccccc1 [Proadifen hydrochloride],–,-1.354,468.828,–
CN1CCN(CCCN2c3ccccc3Sc3ccc(Cl)cc32)CC1 [Prochlorperazine dimaleate],89.1291,-4.76,–,–
OC(CCN1CCCC1)(c1ccccc1)C1CCCCC1 (centres unmarked) [Procyclidine hydrochloride],–,-0.705,562.821,–
CC(=O)[C@H]1CC[C@H]2[C@@H]3CCC4=CC(=O)CC[C@]4(C)[C@H]3CC[C@]12C [Progesterone],–,0.628,609.007,–
CCCN(CCC)C(=O)C(CCC(=O)O)NC(=O)c1ccccc1 (centres unmarked) [Proglumide],231.221,0.098,–,–
CC(C)[N+](C)(CCOC(=O)C1c2ccccc2Oc2ccccc21)C(C)C [Propantheline bromide],–,-0.131,472.136,–
CC[N+](C)(CC)CCC[n+]1c(-c2ccccc2)c2cc(N)ccc2c2ccc(N)cc21.[I-].[I-] [Propidium iodide],–,-1.35,504.845,–
CCCOc1cc(N)ccc1C(=O)OCCN(CC)CC [Propoxycaine hydrochloride],73.2735,-2.561,–,–
C[C@@H]1O[C@@H](O[C@@H]2C=C3CC[C@@H]4[C@H](CC[C@]5(C)[C@@H](c6ccc(=O)oc6)CC[C@]45O)[C@@]3(C)CC2)[C@H](O)[C@H](O)[C@H]1O [Proscillaridin A],183.761,-2.06,–,–
